Measurements published in PMC11243177, “The Discovery, Molecular Cloning, and Characterization of Dextransucrase LmDexA and Its Active Truncated Mutant from Leuconostoc mesenteroides NN710” (Molecules, 2024).

Target: T1, ΔN190LmDexA (Leuconostoc mesenteroides, UniProt Q03VD8)
T1 construct: gene LEUM_1747; N-terminal 190 residues removed (signal peptide and variable region); 1372 aa, theoretical 150 kDa; borders 191-1562 derived from printed lengths
Assay: DNS assay of released reducing sugar (fructose), Michaelis-Menten fit
Format: biochemical
Settings: pH 5.6, 30 °C, 20 mM sodium acetate, 3-300 mM sucrose, 30 min

T1 sequence (Q03VD8 entry or part of it, stated change not applied): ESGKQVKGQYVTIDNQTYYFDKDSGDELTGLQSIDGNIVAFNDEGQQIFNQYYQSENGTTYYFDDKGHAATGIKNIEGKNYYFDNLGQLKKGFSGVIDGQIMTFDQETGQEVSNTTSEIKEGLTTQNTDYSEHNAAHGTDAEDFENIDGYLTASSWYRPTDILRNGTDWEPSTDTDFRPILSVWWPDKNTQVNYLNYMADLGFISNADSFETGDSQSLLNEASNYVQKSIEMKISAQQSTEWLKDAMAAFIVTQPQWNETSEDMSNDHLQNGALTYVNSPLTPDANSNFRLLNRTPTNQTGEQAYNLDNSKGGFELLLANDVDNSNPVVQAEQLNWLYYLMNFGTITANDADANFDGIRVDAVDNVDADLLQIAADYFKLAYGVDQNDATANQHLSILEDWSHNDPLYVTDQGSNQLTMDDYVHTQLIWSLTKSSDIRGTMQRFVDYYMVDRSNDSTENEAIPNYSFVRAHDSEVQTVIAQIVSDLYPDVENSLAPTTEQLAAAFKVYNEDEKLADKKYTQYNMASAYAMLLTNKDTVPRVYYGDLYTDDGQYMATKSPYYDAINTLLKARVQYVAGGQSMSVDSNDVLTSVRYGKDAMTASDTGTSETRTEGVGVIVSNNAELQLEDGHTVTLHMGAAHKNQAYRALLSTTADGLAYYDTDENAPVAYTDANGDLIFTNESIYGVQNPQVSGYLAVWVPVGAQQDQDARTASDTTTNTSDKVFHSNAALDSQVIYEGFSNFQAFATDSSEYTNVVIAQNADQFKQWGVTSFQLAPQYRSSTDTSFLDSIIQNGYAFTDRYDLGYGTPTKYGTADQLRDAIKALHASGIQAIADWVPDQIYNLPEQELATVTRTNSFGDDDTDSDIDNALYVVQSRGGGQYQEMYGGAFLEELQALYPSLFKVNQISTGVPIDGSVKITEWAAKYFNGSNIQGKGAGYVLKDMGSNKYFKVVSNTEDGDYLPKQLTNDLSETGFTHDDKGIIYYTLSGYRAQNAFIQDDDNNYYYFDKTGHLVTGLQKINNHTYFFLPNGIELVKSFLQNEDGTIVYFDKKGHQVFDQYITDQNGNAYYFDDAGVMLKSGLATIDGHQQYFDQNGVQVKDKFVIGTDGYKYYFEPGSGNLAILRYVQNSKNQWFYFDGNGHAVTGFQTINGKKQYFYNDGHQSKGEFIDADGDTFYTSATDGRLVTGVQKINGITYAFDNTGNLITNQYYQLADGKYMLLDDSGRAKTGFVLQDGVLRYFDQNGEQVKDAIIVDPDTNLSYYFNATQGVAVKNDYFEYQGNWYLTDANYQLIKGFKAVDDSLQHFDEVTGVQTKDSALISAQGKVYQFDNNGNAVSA

`OC[C@H]1O[C@@](CO)(O[C@H]2O[C@H](CO)[C@@H](O)[C@H](O)[C@H]2O)[C@@H](O)[C@@H]1O` [sucrose] gave a Km of 13.7 mM.
